Test results from patent US9724358B2, “Minocycline compounds and methods of use thereof” (Paratek Pharmaceuticals, Inc., priority 2008, dated 2017).
Marks after values point to notes of the source that are not given here.

What was measured:
Mixed GPC/GNR = assay: Phase 2 CSSSI study, clinical outcome by organism: Mixed GPC/GNR; assay type: in vivo; conditions: ME population
Experimental: (§1) A randomized (1:1), controlled, evaluator-blinded Phase 2 study comparing 9-[(2,2-dimethyl-propyl amino)-methyl-minocycline (compound 1) and linezolid (Zyvox™) for the treatment of complicated skin and skin structure infections (CSSSI) was conducted. Patients with CSSSI who required initial intravenous (IV) therapy and met inclusion and exclusion criteria were enrolled at 11 centers in the US and were randomized to receive either compound 1 (100 mg Q24 h IV with 200 mg Q24 h oral step-down) or linezolid (600 mg Q12 h IV with 600 mg Q12 h oral step-down).
(§2) An infecting pathogen was defined as an isolate derived from the last positive culture taken from the site of infection under study prior to and including day 1.

MSSA = assay: Phase 2 CSSSI study, clinical outcome by organism: MSSA; assay type: in vivo, Staphylococcus aureus
Experimental: as §1, §2

[1] = Phase 2 CSSSI study, safety and adverse events by patient; assay type: in vivo, human
Experimental: as §1
(§3) At each of the four structured evaluations, the blinded evaluator assessed the subject, with particular attention to scoring the findings at the primary site of infection and obtaining cultures. Clinical and microbiologic outcomes were determined using these assessments. Primary evaluation criteria was safety and tolerability compared with linezolid. Secondary evaluation criteria was efficacy of compound 1 compared to linezolid, as well as pharmacokinetics of compound 1.
In addition, the patients in the study were monitored for adverse events (AE). An adverse event is any untoward medical occurrence temporally associated with the use of a medical product in a subject, whether or not the event is considered causally related to the medical product.

Enterococcus = assay: Phase 2 CSSSI study, clinical outcome by organism: Enterococcus; assay type: in vivo; conditions: ME population
Experimental: as §1, §2

[2] = Phase 2 CSSSI study, safety: ALT level; assay type: in vivo, human
Experimental: as §1, §3

Viridans Strep = assay: Phase 2 CSSSI study, clinical outcome by organism: Viridans Strep; assay type: in vivo, Viridans Streptococci; conditions: ME population
Experimental: as §1, §2

Mixed GPC = assay: Phase 2 CSSSI study, clinical outcome by organism: Mixed GPC; assay type: in vivo; conditions: ME population
Experimental: as §1, §2

G+ anaerobes = assay: Phase 2 CSSSI study, clinical outcome by organism: G+ anaerobes; assay type: in vivo, gram-positive anaerobes; conditions: ME population
Experimental: as §1, §2

infecting pathogen = assay: Phase 2 CSSSI study, microbiology outcome; assay type: in vivo, human; conditions: ME population
Experimental: as §2
A persisting pathogen at the site of infection under study was defined as an isolate that was the same genus and species as an infecting pathogen; and was cultured at the Test-of-Cure evaluation from the site of infection under study.
A superinfecting pathogen at the site of infection under study is defined as a pathogen meeting all of the following criteria: represented a genus and species not isolated during the Enrollment evaluation, was cultured at any time from the day 3 of treatment to the test of cure evaluation, inclusive; was cultured from a patient who had at least one infecting pathogen; and was cultured from a patient who represents a “clinical failure.”
Microbiological response to treatment was determined for each infecting pathogen using the following classification: documented eradication, presumed eradication, documented persistence, presumed persistence, or unknown.
Microbiological response to treatment was determined for each subject using the following classification:
Microbiologic Success—all infecting pathogens isolated at baseline were eradicated or presumed eradicated at the test-of-cure evaluation and no superinfecting pathogen was isolated from the site of infection under study.
Microbiological Failure—persistence or presumed persistence of one or more infecting pathogens or isolation of a superinfecting pathogen from the site of infection under study.

[3] = probably or possibly drug-related by blinded evaluator
[4] = EOT, ALT abnormal at enrollment
[5] = EOT, ALT within normal limits at enrollment
[6] = TOC, ALT abnormal at enrollment
[7] = TOC, ALT within normal limits at enrollment
[8] = max on treatment, ALT abnormal at enrollment
[9] = max on treatment, ALT within normal limits at enrollment
[10] = clinical failure, no pathogen at TOC
[11] = clinical success, enrollment pathogen isolated at TOC
[12] = clinical success, no pathogen at TOC

CC(=O)NCC1CN(c2ccc(N3CCOCC3)c(F)c2)C(=O)O1 (stereo not drawn) [Linezolid, N-[[3-(3-fluoro-4-morpholinophenyl)-2-oxooxazolidin-5-yl]methyl]acetamide, reference compound]
Clinical outcome Failure (number) (Mixed GPC/GNR): 0 | Clinical outcome Success (number) (Mixed GPC/GNR): 10 | Clinical outcome Failure (number) (MSSA; ME population, MSSA): 2 | Clinical outcome Success (number) (MSSA; ME population, MSSA): 21 | clinical success rate against MSSA (MSSA; as determined in the trials of the Exemplification): 91% | Adverse events by patient, Cardiac, Drug Related [1, 3]: 3 | Adverse events by patient, Ear, Drug Related [1, 3]: 1 | Adverse events by patient, Eye, Drug Related [1, 3]: 1 | Adverse events by patient, GI, Drug Related [1, 3]: 13^b | Adverse events by patient, General, Drug Related [1, 3]: 4 | Adverse events by patient, Heme, Drug Related [1, 3]: 0 | Adverse events by patient, Infection, Drug Related [1, 3]: 1 | Adverse events by patient, Injury, Drug Related [1, 3]: 1 | Adverse events by patient, Investigations, Drug Related [1, 3]: 8 | Adverse events by patient, Metabolism, Drug Related [1, 3]: 2 | Adverse events by patient, Musculoskeletal, Drug Related [1, 3]: 0 | Adverse events by patient, Neurologic, Drug Related [1, 3]: 7 | Adverse events by patient, Psych, Drug Related [1, 3]: 3 | Adverse events by patient, Renal, Drug Related [1, 3]: 0 | Adverse events by patient, Reproductive, Drug Related [1, 3]: 0 | Adverse events by patient, Respiratory, Drug Related [1, 3]: 0 | Adverse events by patient, Skin, Drug Related [1, 3]: 6^c | Adverse events by patient, Vascular, Drug Related [1, 3]: 1 | Adverse events by patient, GI, Drug Related ([1]; probably or possibly drug-related by blinded evaluator, listed as linezolid): 13 | Adverse events by patient, Cardiac, Total ([1]; safety population): 4 | Adverse events by patient, Ear, Total ([1]; safety population): 2 | Adverse events by patient, Eye, Total ([1]; safety population): 1 | Adverse events by patient, GI, Total ([1]; safety population): 21 | Adverse events by patient, General, Total ([1]; safety population): 8 | Adverse events by patient, Heme, Total ([1]; safety population): 2 | Adverse events by patient, Infection, Total ([1]; safety population): 9 | Adverse events by patient, Injury, Total ([1]; safety population): 1 | Adverse events by patient, Investigations, Total ([1]; safety population): 11 | Adverse events by patient, Metabolism, Total ([1]; safety population): 7 | Adverse events by patient, Musculoskeletal, Total ([1]; safety population): 2 | Adverse events by patient, Neurologic, Total ([1]; safety population): 15 | Adverse events by patient, Psych, Total ([1]; safety population): 6 | Adverse events by patient, Renal, Total ([1]; safety population): 2 | Adverse events by patient, Reproductive, Total ([1]; safety population): 1 | Adverse events by patient, Respiratory, Total ([1]; safety population): 2 | Adverse events by patient, Skin, Total ([1]; safety population): 10 | Adverse events by patient, Vascular, Total ([1]; safety population): 1 | Patients with no adverse event (None), % ([1]; safety population): 49.1% | Patients with no adverse event (None), number ([1]; safety population): 53 | Total Patients with 1 or more AE, % ([1]; safety population): 50.9% | Total Patients with 1 or more AE, number ([1]; safety population): 55 | Clinical outcome Failure (number) (Enterococcus): 0 | Clinical outcome Success (number) (Enterococcus): 3 | ALT Increase: >2x ULN and 2x baseline (number) [2, 4]: 0 | ALT NS: >ULN and <2x baseline (%) [2, 4]: (63.6%) | ALT NS: >ULN and <2x baseline (number) [2, 4]: 7 | ALT Within normal limits (%) [2, 4]: (36.4%) | ALT Within normal limits (number) [2, 4]: 4 | ALT 1x-2x (%) [2, 5]: (10.0%) | ALT 1x-2x (number) [2, 5]: 9 | ALT 2x-3x (%) [2, 5]: (1.1%) | ALT 2x-3x (number) [2, 5]: 1 | ALT >3x (%) [2, 5]: (1.1%) | ALT >3x (number) [2, 5]: 1 | ALT Within normal limits (%) [2, 5]: (87.8%) | ALT Within normal limits (number) [2, 5]: 79 | ALT Increase: >2x ULN and 2x baseline (%) [2, 6]: (8.3%) | ALT Increase: >2x ULN and 2x baseline (number) [2, 6]: 1 | ALT NS: >ULN and <2x baseline (%) [2, 6]: (50.0%) | ALT NS: >ULN and <2x baseline (number) [2, 6]: 6 | ALT Within normal limits (%) [2, 6]: (41.7%) | ALT Within normal limits (number) [2, 6]: 5 | ALT 1x-2x (%) [2, 7]: (5.1%) | ALT 1x-2x (number) [2, 7]: 4 | ALT 2x-3x (number) [2, 7]: 0 | ALT >3x (number) [2, 7]: 0 | ALT Within normal limits (%) [2, 7]: (94.9%) | ALT Within normal limits (number) [2, 7]: 75 | ALT Increase: >2x ULN and 2x baseline (%) [2, 8]: (16.7%) | ALT Increase: >2x ULN and 2x baseline (number) [2, 8]: 2 | ALT NS: >ULN and <2x baseline (%) [2, 8]: (66.7%) | ALT NS: >ULN and <2x baseline (number) [2, 8]: 8 | ALT Within normal limits (%) [2, 8]: (16.7%) | ALT Within normal limits (number) [2, 8]: 2 | ALT 1x-2x (%) [2, 9]: (14.7%) | ALT 1x-2x (number) [2, 9]: 14 | ALT 2x-3x (%) [2, 9]: (5.3%) | ALT 2x-3x (number) [2, 9]: 5 | ALT >3x (%) [2, 9]: (1.1%) | ALT >3x (number) [2, 9]: 1 | ALT Within normal limits (%) [2, 9]: (78.9%) | ALT Within normal limits (number) [2, 9]: 75 | Clinical outcome Failure (number) (Viridans Strep): 0 | Clinical outcome Success (number) (Viridans Strep): 6 | Clinical outcome Failure (number) (Mixed GPC): 2 | Clinical outcome Success (number) (Mixed GPC): 9 | Clinical outcome Failure (number) (G+ anaerobes): 0 | Clinical outcome Success (number) (G+ anaerobes): 3 | Presumed Persistence (% of subjects) (infecting pathogen; [10]): 6.3% | Presumed Persistence (number of subjects) (infecting pathogen; [10]): 4 | Persistence (% of subjects) (infecting pathogen; [11]): 1.6% | Persistence (number of subjects) (infecting pathogen; [11]): 1 | Presumed Eradication (% of subjects) (infecting pathogen; [12]): 92.1% | Presumed Eradication (number of subjects) (infecting pathogen; [12]): 58
